The values that follow are results of earlier work, collected in patent US20080057123A1, “Controlled Release Formulations” (Jagotec AG, priority 2006, published 2008).

Regarding `COC(=O)C1=C(C)NC(C)=C(C(=O)OCC(C)C)C1c1ccccc1[N+](=O)[O-]` (centres unmarked) [Nisoldipine], the solubility in ethanol entry (ethanol) is on record as “soluble”. Moreover, the solubility in water entry (water) is “practically insoluble”.
